In US20120270832A1, “KETONE ACCUMULATION INHIBITOR” (MITSUI SUGAR CO., LTD., priority 2008, published 2012):
Entries after “also recorded” stand apart in the source; their conditions may differ.

What was measured:
[1] = into 100 g water at 20° C.; cited from earlier work
[2] = Drinking test: test drink intake after one hour of exercising; type: in vivo, human; settings: for blood free fatty acid levels changes over time: FIG. 4; for blood lactic acid levels changes over time: FIG. 5; for blood total ketone bodies levels changes over time: FIG. 13; for amount of oxidized carbohydrate changes over time / amount of oxidized lipids (fat) changes over time: calculated from VO2 and VCO2 by Frayn's equation; for amount of oxidized carbohydrate changes over time: FIG. 7; for amount of oxidized lipids (fat) changes over time: FIG. 8; for respiratory quotient changes over time: calculated from oxygen intake and carbon dioxide excretion, FIG. 6; for lipid oxidation, overall finding: recognized from FIGS. 4, 5, 7 and 8; for blood glucose levels (blood sugar level) changes over time: male subjects with suspected metabolic syndrome, drink in 500 ml water taken after 1 h exercise at about 50% VO2 max, blood sampled 10-120 min after intake, FIG. 1
Description: To male subjects with suspected metabolic syndrome and 85 cm or more of abdominal circumferences who lack in exercise, the following test was conducted. […] The subjects, who had family histories of cardiopathy or type 2 diabetes and/or had dyslipidemia, were eliminated from the test. Palatinose or high-fructose corn syrup was dissolved in 500 ml of water so that its intake per kg of body weight could be 1.0 g of the solid, and sucralose, a high intensity sweetener, was dissolved in 500 ml of water so that its intake per kg of body weight could be 1.33 mg of the solid that gives the degree of sweetness between the high-fructose corn syrup and palatinose solutions, to prepare three kinds of test drinks. For these three kinds of drinks, drinking tests were conducted, respectively and each test was conducted at intervals of ten days or longer. The high-fructose corn syrup is composed of glucose and fructose, the same constituent sugars as sucrose and palatinose, and its calorie per the solid is 4 kcal/g which is the same value as that of sucrose and palatinose.
The method of physical measurement for the subjects was based on ACSM guideline (American College of Sports Medicine, 2001). Respiratory gas was collected and analyzed by a respiratory gas automatic analyzer (Oxycon Alpha, manufactured by Mijnhardt) every 30 seconds during the test. Maximal oxygen uptake (VO2max) was calculated by increasing exercise loading gradually with a bicycle ergometer (818E, manufactured by Monark).
The tests were conducted as a double-blind crossover tests and dietary restriction was imposed on the subjects from two days before the tests. All subjects were instructed to abstain from alcohol, caffeine, green tea and high-intensity exercising 24 hours before the tests. Moreover, they recorded food intake two days before the first tests and repeated the same food intake before the second tests. This is for standardizing of the food intake before the tests and for minimizing the change of glycogen storage. All subjects took the same food as the dinner a day before all tests (725 kcal, 60% of the energy from carbohydrate, 30% from lipid and 10% from protein). After an overnight (10 hours to 12 hours) fast, the tests were conducted. During the fasting period, they were permitted to take water freely.
In order to avoid the effect of circadian rhythm, the tests were started at the same time. After the 15 minutes rest, the first venous blood sampling was conducted. The subjects exercised for an hour with loading of about 50% of VO2 max by a bicycle ergometer. After exercising, blood sampling was conducted and they took the test drinks for 5 minutes. Blood sampling was conducted at time points of 10, 20, 30, 45, 60, 75, 90, 105 and 120 minutes after the test drink was taken in. The collected blood samples were submitted for various biochemical measurements. After the drink intake, their heart rates were continuously measured with an electrocardiograph (Dyan Scope, manufactured by Fukuda Denshi).
On the assumption that oxidation of proteins during exercising can be ignored, oxidation of total carbohydrates and lipids was calculated from VO2 and VCO2 using Frayn's equation. The VO2 and VCO2 represent oxygen intake and carbon dioxide excretion in L/min, respectively. Respiratory quotient (RQ) was calculated from oxygen intake and carbon dioxide excretion. Calorie consumption rate was calculated from RQ and VO2 using Lusk's equation.

SMILES	solubility into 100 g water [1] [g]	blood insulin levels changes over time (insulin secretion) ([2]; drink intake after exercising, FIG. 2)	blood free fatty acid levels changes over time ([2]; drink intake after exercising)	blood lactic acid levels changes over time ([2]; drink intake after exercising)	blood neutral fat levels changes over time ([2]; drink intake after exercising, FIG. 9)	blood epinephrine levels changes over time ([2]; drink intake after exercising, FIG. 10)	blood nolepinephrine levels changes over time ([2]; drink intake after exercising, FIG. 11)	blood total ketone bodies levels changes over time ([2]; drink intake after exercising)	amount of oxidized carbohydrate changes over time ([2]; drink intake after exercising)	amount of oxidized lipids (fat) changes over time ([2]; drink intake after exercising)	respiratory quotient changes over time ([2]; drink intake after exercising)	lipid oxidation, overall finding ([2]; drink intake after exercising)	blood glucose levels (blood sugar level) changes over time [2]	blood 3-OHBA levels changes over time ([2]; drink intake after exercising, FIG. 12)
O.OC[C@H]1O[C@H](OC[C@H]2OC(O)(CO)[C@@H](O)[C@@H]2O)[C@H](O)[C@@H](O)[C@@H]1O (stereo partly shown) [Palatinose monohydrate]	38.4													
OC[C@H]1O[C@H](OC[C@H]2OC(O)(CO)[C@@H](O)[C@@H]2O)[C@H](O)[C@@H](O)[C@@H]1O (stereo partly shown) [palatinose, isomaltulose]		mild	between those in taking high-fructose corn syrup and in taking sucralose	between those in taking high-fructose corn syrup and in taking sucralose	no effect	no effect	no effect	dropped without their accumulation in blood; also recorded: inhibit accumulation of ketone bodies	between those of high-fructose corn syrup and sucralose	between those of high-fructose corn syrup and sucralose	between those in taking high-fructose corn syrup and in taking sucralose	rather difficult to prevent	rose slowly thereafter, surpassed that in the case of taking high-fructose corn syrup around 60 minutes thereafter, and continued maintaining a relatively high value	
OC[C@H]1O[C@H](O[C@]2(CCl)O[C@H](CCl)[C@@H](O)[C@@H]2O)[C@H](O)[C@@H](O)[C@H]1Cl [sucralose, reference compound]			the higher values were maintained	no change				rose	lower values	higher values	~0.7	maintained	did not rise	rose
